Measurements published in patent publication US7736630B2, “Products for preventing penetration into the skin” (priority 2002, dated 2010).
Where two headings read alike, the source gives them in different places.

Assay: Skin permeation and skin accumulation in Franz diffusion cells
Assay type: in vitro ADME, nude mice (CD1)
Procedure: The permeation of pure OMC and Di(4-methoxycinnamoyl)jojobadiol (two —OH groups esterified) was measured by using dorsal skin of male, 7 weeks old, nude mice (CD1, Weizmann Institute, Israel).
The experiments were carried out for 24 hours at 37° C. in Franz diffusion cells. Samples of 200 μl were taken at 1, 2, 4, 6, 8 and 24 hours. 10 mg of each compound were applied on each skin (area—1.77 cm^2). The receiver compartment contained EtOH:H2O (1:1). At the end of the experiment the skin was cleaned and the skins were extracted with 10 ml EtOH. The amounts of the OMC and derivative Di(4-methoxycinnamoyl)jojobadiol were assayed by HPLC.

Molecule | penetration/permeation across the skin (in words) | amount penetrated as % of the dose applied on the skin (male, CD1 nude, mouse, 24 h) | amount which penetrated into the skin at the end of permeation experiment (male, CD1 nude, mouse, 24 h) | amount accumulated in the skin at the end of experiment (10 mg on 1.77 cm^2 skin, 24 hours, 37° C., skin extracted with 10 ml EtOH, FIG. 7) | penetration/permeation across the skin (in words) (24 hours in vitro permeation, lowest detectable concentration of the derivative by HPLC 0.8 μg/ml, FIG. 6) | penetration/permeation across the skin (in words) (24 hours in vitro permeation, lowest detectable concentration of the derivative by HPLC 0.8 μg/ml, FIG. 6, listed as di(4-methoxy-cinnamoyl)jojobadiol) | skin accumulation, OMC compared with Di(4-methoxycinnamoyl)jojobadiol (end of 24 hours experiment, FIG. 7)
CCCCC(CC)COC(=O)C=Cc1ccc(OC)cc1 (stereo not shown) [OMC, octylmethoxycinnamate, reference compound] | permeates to the skin | 8.76% | 876 ± 235 µg |  |  |  | 
Di(4-methoxycinnamoyl)jojobadiol |  |  |  | 900 ± 359 µg | no penetration | does not | about third of the amount of the OMC
